Experimental data taken from patent US12337000B2, “Therapeutic modulators of the reverse mode of ATP synthase” (priority 2017, dated 2025).

Columns and labels:
[1] = cited from earlier work
[2] = target: F1F0 ATP synthesis and hydrolysis (Homo sapiens, UniProt P06576+P25705); conditions: isolated mitochondria, no matter how great the concentration [114]; cited from earlier work
[3] = Human pharmacokinetics of oral almitrine dimesylate; assay type: in vivo; conditions: 0.6*17, after 200 mg oral dose
[4] = humans [121]; cited from earlier work
[5] = 30 year pharmacovigilance survey in France, oral, multi-year use [120]

With `C=CCNc1nc(NCC=C)nc(N2CCN(C(c3ccc(F)cc3)c3ccc(F)cc3)CC2)n1` [almitrine] as the molecule, how does the peripheral neuropathy [1, 5] read?
Its peripheral neuropathy is 2,304 cases.

What about the weight loss [1, 5] of the same molecule?
The weight loss was 795 cases.

What about the “share of presenting cases categorised as serious” value [1, 120] of the same molecule?
Its value is < 10%.

And the “patients with reversible lactic acidosis and hepatic dysfunction” value ([1]; intravenous 459±155 mg within 24 hours, 25 patients [127])?
The value was 30%.

And the “mean onset of adverse reactions” value ([1]; oral, chronic use [120])?
The value was 11 months.

And the “maximal decrease in F1F0 ATP synthesis and hydrolysis” value [2]?
The value was ~60%.

And the “corresponding tissue concentration (assuming uniform)” value [3]?
The value was ~10 µM.

And the “volume of distribution (VD)” value [4]?
Its value is 17 L/kg.
